From patent publication US11357779B2 (G1 Therapeutics, Inc., priority 2018, dated 2022)
Like-named read-outs stand apart in the source and are kept apart here.

Assay: Plasma concentration versus time of Compound I and metabolite Compound III in patients dosed QD or BID with Form B of Compound II plus fulvestrant
Assay type: in vivo, human
Details: human, plasma, oral; for concentration at 8 day / concentration at 15 day: Cohort 7, 150 mg BID of Form B; for concentration at 8 day: Day 8; for concentration at 15 day: Day 15
Excerpt: Patients were enrolled into 1 of 2 parallel, independently operating, dose-escalation dosing cohorts with Form B of Compound II administered continuously either once daily (QD) or twice daily (BID) with food with fixed-dose fulvestrant (intramuscularly every 14 days for the first three injections and then every 28 days). Pre- or perimenopausal patients also received goserelin for the duration of study treatment. A […] agonist was started at least 28 days before the first dose of Form B, and those patients who were taking another LHRH agonist were switched to goserelin on Day 1. Patients were split into […] cohorts providing once a day (QD) dosing of 200 mg, 300 mg, 400 mg, 500 mg, or 650 mg of Form B, or twice a day (BID) dosing of 100 mg, 150 mg, or 200 mg of Form B. The second dose in BID cohorts was not administered in the evening until at least 12 hours after the initial morning dose of Form B. The dosing cohorts for Form B of Compound II are provided in Table 1.
Blood samples were collected at the following time points relative to the morning dose of Form B at Day 1 and at Day 29: pre-dose (0 hour) and 1, 2, 3, 4, 6, 8, 10, 12 (prior to the evening dose in the BID cohorts), and 24 (prior to the next day's morning dose) hours after dosing. A 5-minute time window was allowed for samples collected between the predose and 3 hours after Form B dosing. A 15-minute window was allowed for samples collected between 4 to 12 hours after Form B dosing. A 1-hour window was allowed for the sample collected 24 hours after Form B dosing. Blood samples for Compound I PK trough levels were collected pre-dose at Day 8, Day 15, and Day 22 prior to the morning administration of Compound I. Plasma concentrations of Compound I and its metabolite, Compound III, were measured using validated methods.
Analysis of plasma concentration versus time data for calculation of standard pharmacokinetic (PK) parameters following oral administration was conducted using Phoenix WinNonlin version 6.3 using actual blood sampling times.

[1] = 150 mg, read-out: Trough Compound I Concentration, Max
[2] = 150 mg, read-out: Trough Compound I Concentration, Median

## CC(C)N1CCN(c2ccc(Nc3ncc4cc5n(c4n3)C3(CCCCC3)CNC5=O)nc2)CC1 [Compound I, 2′-((5-(4-isopropylpiperazin-1-yl)pyridin-2-yl)amino)-7′,8′-dihydro-6′H-spiro[cyclohexane-1,9′-pyrazino[1′,2′:1,5]pyrrolo[2,3-d]pyrimidin]-6′-one]
100 mg, Cohort 6, 100 mg BID of Form B, Day 29, 0.0 h, read-out: Compound I Concentration, Median
  concentration at 0 h: 4.13 ng/mL
100 mg, Cohort 6, 100 mg BID of Form B, Day 29, 0.0 h, read-out: Compound I Concentration, Min
  concentration at 0 h: 1.54 ng/mL
100 mg, Cohort 6, 100 mg BID of Form B, Day 29, 1.0 h, read-out: Compound I Concentration, Max
  concentration at 1 h: 15.7 ng/mL
100 mg, Cohort 6, 100 mg BID of Form B, Day 29, 1.0 h, read-out: Compound I Concentration, Mean
  concentration at 1 h: 9.25 ng/mL
100 mg, Cohort 6, 100 mg BID of Form B, Day 29, 1.0 h, read-out: Compound I Concentration, Median
  concentration at 1 h: 9.34 ng/mL
100 mg, Cohort 6, 100 mg BID of Form B, Day 29, 1.0 h, read-out: Compound I Concentration, Min
  concentration at 1 h: 1.79 ng/mL
100 mg, Cohort 6, 100 mg BID of Form B, Day 29, 2.0 h, read-out: Compound I Concentration, Max
  concentration at 2 h: 19.6 ng/mL
100 mg, Cohort 6, 100 mg BID of Form B, Day 29, 2.0 h, read-out: Compound I Concentration, Mean
  concentration at 2 h: 11 ng/mL
100 mg, Cohort 6, 100 mg BID of Form B, Day 29, 2.0 h, read-out: Compound I Concentration, Median
  concentration at 2 h: 11.8 ng/mL
100 mg, Cohort 6, 100 mg BID of Form B, Day 29, 2.0 h, read-out: Compound I Concentration, Min
  concentration at 2 h: 2.94 ng/mL
100 mg, Cohort 6, 100 mg BID of Form B, Day 29, 3.0 h, read-out: Compound I Concentration, Max
  concentration at 3 h: 20.5 ng/mL
100 mg, Cohort 6, 100 mg BID of Form B, Day 29, 3.0 h, read-out: Compound I Concentration, Mean
  concentration at 3 h: 10.5 ng/mL
100 mg, Cohort 6, 100 mg BID of Form B, Day 29, 3.0 h, read-out: Compound I Concentration, Median
  concentration at 3 h: 8.31 ng/mL
100 mg, Cohort 6, 100 mg BID of Form B, Day 29, 3.0 h, read-out: Compound I Concentration, Min
  concentration at 3 h: 4.4 ng/mL
100 mg, Cohort 6, 100 mg BID of Form B, Day 29, 4.0 h, read-out: Compound I Concentration, Max
  concentration at 4 h: 19.8 ng/mL
100 mg, Cohort 6, 100 mg BID of Form B, Day 29, 4.0 h, read-out: Compound I Concentration, Mean
  concentration at 4 h: 10.5 ng/mL
100 mg, Cohort 6, 100 mg BID of Form B, Day 29, 4.0 h, read-out: Compound I Concentration, Median
  concentration at 4 h: 9.26 ng/mL
100 mg, Cohort 6, 100 mg BID of Form B, Day 29, 4.0 h, read-out: Compound I Concentration, Min
  concentration at 4 h: 5.14 ng/mL
100 mg, Cohort 6, 100 mg BID of Form B, Day 29, 6.0 h, read-out: Compound I Concentration, Max
  concentration at 6 h: 16.2 ng/mL
100 mg, Cohort 6, 100 mg BID of Form B, Day 29, 6.0 h, read-out: Compound I Concentration, Mean
  concentration at 6 h: 8.82 ng/mL
100 mg, Cohort 6, 100 mg BID of Form B, Day 29, 6.0 h, read-out: Compound I Concentration, Median
  concentration at 6 h: 8.11 ng/mL
100 mg, Cohort 6, 100 mg BID of Form B, Day 29, 6.0 h, read-out: Compound I Concentration, Min
  concentration at 6 h: 4.1 ng/mL
100 mg, Cohort 6, 100 mg BID of Form B, Day 29, 8.0 h, read-out: Compound I Concentration, Max
  concentration at 8 h: 13.8 ng/mL
100 mg, Cohort 6, 100 mg BID of Form B, Day 29, 8.0 h, read-out: Compound I Concentration, Mean
  concentration at 8 h: 7.45 ng/mL
100 mg, Cohort 6, 100 mg BID of Form B, Day 29, 8.0 h, read-out: Compound I Concentration, Median
  concentration at 8 h: 6.57 ng/mL
100 mg, Cohort 6, 100 mg BID of Form B, Day 29, 8.0 h, read-out: Compound I Concentration, Min
  concentration at 8 h: 3.61 ng/mL
100 mg, Cohort 6, 100 mg BID of Form B, Day 29, 10.0 h, read-out: Compound I Concentration, Max
  concentration at 10 h: 11.4 ng/mL
100 mg, Cohort 6, 100 mg BID of Form B, Day 29, 10.0 h, read-out: Compound I Concentration, Mean
  concentration at 10 h: 6.23 ng/mL
100 mg, Cohort 6, 100 mg BID of Form B, Day 29, 10.0 h, read-out: Compound I Concentration, Median
  concentration at 10 h: 5.44 ng/mL
100 mg, Cohort 6, 100 mg BID of Form B, Day 29, 10.0 h, read-out: Compound I Concentration, Min
  concentration at 10 h: 2.88 ng/mL
100 mg, Cohort 6, 100 mg BID of Form B, Day 29, 12.0 h, read-out: Compound I Concentration, Max
  concentration at 12 h: 10.1 ng/mL
100 mg, Cohort 6, 100 mg BID of Form B, Day 29, 12.0 h, read-out: Compound I Concentration, Mean
  concentration at 12 h: 7.16 ng/mL
100 mg, Cohort 6, 100 mg BID of Form B, Day 29, 12.0 h, read-out: Compound I Concentration, Median
  concentration at 12 h: 8.36 ng/mL
100 mg, Cohort 6, 100 mg BID of Form B, Day 29, 12.0 h, read-out: Compound I Concentration, Min
  concentration at 12 h: 2.37 ng/mL
150 mg, 150 mg BID of Form B, Day 1, 0.0 h, Mean, read-out: Compound I Concentration
  concentration at 0 h: 0 ng/mL
150 mg, 150 mg BID of Form B, Day 1, 0.0 h, Median, read-out: Compound I Concentration
  concentration at 0 h: 0 ng/mL
150 mg, 150 mg BID of Form B, Day 1, 1.0 h, Mean, read-out: Compound I Concentration
  concentration at 1 h: 4.63 ng/mL
150 mg, 150 mg BID of Form B, Day 1, 1.0 h, Median, read-out: Compound I Concentration
  concentration at 1 h: 5.06 ng/mL
150 mg, 150 mg BID of Form B, Day 1, 2.0 h, Mean, read-out: Compound I Concentration
  concentration at 2 h: 11 ng/mL
150 mg, 150 mg BID of Form B, Day 1, 2.0 h, Median, read-out: Compound I Concentration
  concentration at 2 h: 11.6 ng/mL
150 mg, 150 mg BID of Form B, Day 1, 3.0 h, Mean, read-out: Compound I Concentration
  concentration at 3 h: 14.4 ng/mL
150 mg, 150 mg BID of Form B, Day 1, 3.0 h, Median, read-out: Compound I Concentration
  concentration at 3 h: 10.2 ng/mL
150 mg, 150 mg BID of Form B, Day 1, 4.0 h, Mean, read-out: Compound I Concentration
  concentration at 4 h: 20.7 ng/mL
150 mg, 150 mg BID of Form B, Day 1, 4.0 h, Median, read-out: Compound I Concentration
  concentration at 4 h: 21.5 ng/mL
150 mg, 150 mg BID of Form B, Day 1, 6.0 h, Mean, read-out: Compound I Concentration
  concentration at 6 h: 12.2 ng/mL
150 mg, 150 mg BID of Form B, Day 1, 6.0 h, Median, read-out: Compound I Concentration
  concentration at 6 h: 10.4 ng/mL
150 mg, 150 mg BID of Form B, Day 1, 8.0 h, Mean, read-out: Compound I Concentration
  concentration at 8 h: 10.1 ng/mL
150 mg, 150 mg BID of Form B, Day 1, 8.0 h, Median, read-out: Compound I Concentration
  concentration at 8 h: 9.95 ng/mL
150 mg, 150 mg BID of Form B, Day 1, 10.0 h, Mean, read-out: Compound I Concentration
  concentration at 10 h: 8.98 ng/mL
150 mg, 150 mg BID of Form B, Day 1, 10.0 h, Median, read-out: Compound I Concentration
  concentration at 10 h: 8.98 ng/mL
150 mg, 150 mg BID of Form B, Day 1, 12.0 h, Mean, read-out: Compound I Concentration
  concentration at 12 h: 7.73 ng/mL
150 mg, 150 mg BID of Form B, Day 1, 12.0 h, Median, read-out: Compound I Concentration
  concentration at 12 h: 7.38 ng/mL
[1]
  concentration at 8 day: 42.3 ng/mL
  concentration at 15 day: 35.7 ng/mL
150 mg, read-out: Trough Compound I Concentration, Mean
  concentration at 8 day: 26.8 ng/mL
[2]
  concentration at 8 day: 20.6 ng/mL
  concentration at 15 day: 23.3 ng/mL
150 mg, read-out: Trough Compound I Concentration, Min
  concentration at 8 day: 17.4 ng/mL
